Measurements taken from the NIST ThermoML archive (doi:10.1021/acs.jced.6b00713).
± gives the expanded uncertainty stated by the source.

What was measured:
[1] = 298.15 K; 101.33 kPa; Liquid; Vibrating tube method
[2] = Boiling temperature at pressure P; details: 101.3 kPa; Liquid; Ebulliometric method (Recirculating still)
[3] = refractive index (Na D-line) (dimensionless); details: 293.15 K; 101.33 kPa; Liquid; Standard Abbe refractometry

| mass density [1] [kg/m3] | Boiling temperature at pressure P [2] [°C] | refractive index [3] | Structure (SMILES) |
| --- | --- | --- | --- |
| 940.5 ± 0.1 | 129.1 ± 0.2 | 1.4985 ± 0.0007 | Cc1ccccn1 [2-methylpyridine] |
|  | 100.10 ± 0.2 | 1.3322 ± 0.0007 | O [water] |
